Reference: ChEMBL document CHEMBL6153083, “Synthesis, Structural Modification, and Antismall Cell Lung Cancer Activity of 3-Arylisoquinolines with Dual Inhibitory Activity on Topoisomerase I and II” (J Med Chem, 2025)

How the values were obtained:
[1] = Antiproliferative activity against human NCI-H196 cells incubated for 72 hrs; assay type: functional, cell-based; settings: NCI-H196, 72 h
[2] = tested on: NCI-H446; assay: Antiproliferative activity against human NCI-H446 cells incubated for 72 hrs; assay type: functional, cell-based; settings: NCI-H446, 72 h
[3] = tested on: NCI-H82; assay: Antiproliferative activity against human NCI-H82 cells incubated for 72 hrs; assay type: functional, cell-based; settings: NCI-H82, 72 h
[4] = tested on: SHP77; assay: Antiproliferative activity against human SHP77 cells incubated for 72 hrs; assay type: functional, cell-based; settings: SHP77, 72 h
[5] = tested on: NCI-H146; assay: Antiproliferative activity against human NCI-H146 cells incubated for 72 hrs; assay type: functional, cell-based; settings: NCI-H146, 72 h
[6] = Antiproliferative activity against human BEAS-2B cells incubated for 72 hrs; assay type: toxicity, cell-based
[7] = tested on: NCI-H209; assay: Antiproliferative activity against human NCI-H209 cells incubated for 72 hrs; assay type: functional, cell-based; settings: NCI-H209, 72 h
[8] = Antiproliferative activity against human L02 cells incubated for 72 hrs; assay type: toxicity, cell-based
[9] = tested on: NCI-H1048; assay: Antiproliferative activity against human NCI-H1048 cells incubated for 72 hrs; assay type: functional, cell-based; settings: NCI-H1048, 72 h

Structure (SMILES) | IC50 [2] [µM] | IC50 [3] [µM] | IC50 [5] [µM] | IC50 [7] [µM] | IC50 [9] [µM] | IC50 [1] [µM] | IC50 [4] [µM] | IC50 at 72 h [6] [µM] | IC50 at 72 h [8] [µM]
OC1CCCN(Cc2cc3c(cc2-c2cc4ccc5c(c4cn2)OCO5)OCO3)CC1 (stereo unspecified) | 45.9 | 30 | 30.9 | 47.5 | 21 | 38.7 | 28.4 | 21.1 | 37.4
COCC1CCN(Cc2cc3c(cc2-c2cc4ccc5c(c4cn2)OCO5)OCO3)CC1 | 39.3 | 55.6 | 37.1 | 53.1 | 44.1 | 45.7 | 38.5 | 28.2 | 48.4
CC1(CO)CCN(Cc2cc3c(cc2-c2cc4ccc5c(c4cn2)OCO5)OCO3)CC1 | 65.8 | 56.9 | 70.3 | 82.6 | 29.8 | 40.5 | 22.6 | 21.2 | 37.9
FC1CN(Cc2cc3c(cc2-c2cc4ccc5c(c4cn2)OCO5)OCO3)C1 | 49.8 | > 100 | – | > 100 | 74.1 | > 100 | 44.9 | 75.6 | 59
c1c(CN2CCCCC2)c(-c2cc3ccc4c(c3cn2)OCO4)cc2c1OCO2 | 20.2 | 27.1 | > 100 | 55.6 | 14.1 | 33.7 | 30.2 | 21.2 | 25.2
CC1(C)CCN(Cc2cc3c(cc2-c2cc4ccc5c(c4cn2)OCO5)OCO3)C1 | 12.5 | 15 | 14 | 30.7 | 7.22 | 13.9 | 16.3 | 17 | 24.8
c1c(CN2CCCCCCCC2)c(-c2cc3ccc4c(c3cn2)OCO4)cc2c1OCO2 | 12.5 | 15 | 14 | 30.7 | 7.22 | 13.9 | 16.3 | 17 | 24.8
OCCCC1CCN(Cc2cc3c(cc2-c2cc4ccc5c(c4cn2)OCO5)OCO3)CC1 | 19.5 | 41.1 | 21.1 | 68.5 | 24.4 | 28.2 | 26.3 | 24.8 | 52.2
CC1(F)CN(Cc2cc3c(cc2-c2cc4ccc5c(c4cn2)OCO5)OCO3)C1 | 38.5 | > 100 | – | > 100 | > 100 | > 100 | > 100 | > 100 | > 100
c1c(CN2CCC(C3CC3)CC2)c(-c2cc3ccc4c(c3cn2)OCO4)cc2c1OCO2 | 15.5 | > 100 | 37.8 | > 100 | > 100 | > 100 | > 100 | > 100 | 83.6
COC(=O)C1CCN(Cc2cc3c(cc2-c2cc4ccc5c(c4cn2)OCO5)OCO3)CC1 | 65.6 | > 100 | > 100 | > 100 | 60.6 | > 100 | > 100 | 77.5 | –
CCC1CCCCN1Cc1cc2c(cc1-c1cc3ccc4c(c3cn1)OCO4)OCO2 (stereo unspecified) | 16.9 | 15.9 | 33.1 | 25.4 | 13.4 | 17.1 | 20.8 | 20.7 | 22.6
NC(=O)C1CCN(Cc2cc3c(cc2-c2cc4ccc5c(c4cn2)OCO5)OCO3)CC1 | 74.1 | 63.4 | > 100 | 77 | 38.6 | 57.7 | 41.5 | 28.8 | 25.1
FC1CCN(Cc2cc3c(cc2-c2cc4ccc5c(c4cn2)OCO5)OCO3)CC1 | 97.8 | > 100 | > 100 | > 100 | > 100 | > 100 | > 100 | > 100 | > 100
FC1(F)C2CCN(Cc3cc4c(cc3-c3cc5ccc6c(c5cn3)OCO6)OCO4)CC21 (stereo unspecified) | 11.1 | 44.2 | 12.8 | 30.9 | 21.5 | 27.4 | 15.8 | 10.3 | 77.6
c1c(CN2CCCCCC2)c(-c2cc3ccc4c(c3cn2)OCO4)cc2c1OCO2 | 15.2 | 16.9 | – | 39.5 | 15.4 | 24.3 | 18 | 12.3 | 14.4
FC1CCCN(Cc2cc3c(cc2-c2cc4ccc5c(c4cn2)OCO5)OCO3)CC1 (stereo unspecified) | 20.6 | 37.8 | – | 58.3 | 17.7 | 35.7 | 42.4 | 33.7 | > 100
CN1CCCN(Cc2cc3c(cc2-c2cc4ccc5c(c4cn2)OCO5)OCO3)CC1 | 10.4 | 6.49 | – | > 50 | 32.1 | 19.8 | 22.3 | > 100 | > 100

More lines, main results first:

IC50 [2] [µM] | IC50 [3] [µM] | IC50 [5] [µM] | IC50 [7] [µM] | IC50 [9] [µM] | Structure (SMILES) | IC50 [1] [µM] | IC50 [4] [µM] | IC50 at 72 h [6] [µM] | IC50 at 72 h [8] [µM]
39.3 | 31.3 | – | 45 | 19.1 | FC1(F)CCCN(Cc2cc3c(cc2-c2cc4ccc5c(c4cn2)OCO5)OCO3)CC1 | 56.4 | 31.3 | 24.2 | 36.6
20.6 | – | > 100 | 46.5 | – | c1c(CN2CC3CCC(C2)O3)c(-c2cc3ccc4c(c3cn2)OCO4)cc2c1OCO2 | 31.3 | 30.8 | 57.3 | > 100
68.4 | 61.5 | 17.1 | 56.6 | 34.6 | OCC1CCN(Cc2cc3c(cc2-c2cc4ccc5c(c4cn2)OCO5)OCO3)C1 (stereo unspecified) | 36 | 32.9 | 26.2 | 43.2
23.1 | 29.8 | 31.4 | 40.6 | 10 | CC1CCCN(Cc2cc3c(cc2-c2cc4ccc5c(c4cn2)OCO5)OCO3)C1 (stereo unspecified) | 27.4 | 17.9 | 14.3 | 43
42.7 | 25.7 | 44.1 | 55.8 | 12.3 | CC1CCN(Cc2cc3c(cc2-c2cc4ccc5c(c4cn2)OCO5)OCO3)CC1 | 26.3 | 31.1 | 23.7 | 34.9
13.8 | 12.4 | 15.5 | 31.8 | 12.9 | c1c(CN2CC3(CCCCC3)C2)c(-c2cc3ccc4c(c3cn2)OCO4)cc2c1OCO2 | 30.6 | 23.6 | 12.6 | 41.5
15.5 | > 100 | 39.8 | > 100 | > 100 | FC(F)(F)C1CCN(Cc2cc3c(cc2-c2cc4ccc5c(c4cn2)OCO5)OCO3)CC1 | 34.5 | 25.4 | > 100 | 56.3
49.6 | 73.2 | 63 | > 100 | > 100 | O=C1CCC2CCN(Cc3cc4c(cc3-c3cc5ccc6c(c5cn3)OCO6)OCO4)CN12 (stereo unspecified) | 78.2 | 36 | > 100 | 84.6
27.5 | 47.7 | 24.4 | 62.2 | 38.2 | CC(O)C1CCN(Cc2cc3c(cc2-c2cc4ccc5c(c4cn2)OCO5)OCO3)CC1 (stereo unspecified) | 32.3 | 28.4 | 21.8 | 30.3
7.1 | 2.96 | 10.1 | > 100 | 2.68 | CC(C)(C)C1CCN(Cc2cc3c(cc2-c2cc4ccc5c(c4cn2)OCO5)OCO3)CC1 | 7.5 | 8.55 | > 100 | > 100
39.8 | 59.7 | 42.6 | 81.2 | 25.3 | c1c(CN2CCCC2)c(-c2cc3ccc4c(c3cn2)OCO4)cc2c1OCO2 | 34.3 | 28.8 | 29 | 33.6
1.22 | 1.72 | – | 18.1 | 18.1 | CC(C)C1CCCCCN1Cc1cc2c(cc1-c1cc3ccc4c(c3cn1)OCO4)OCO2 (stereo unspecified) | 17.9 | 8.23 | 26.5 | 20.5
48.8 | 56.2 | – | 48.8 | 42.3 | CC1CCN1Cc1cc2c(cc1-c1cc3ccc4c(c3cn1)OCO4)OCO2 (stereo unspecified) | 46.3 | 42.6 | 27.7 | 33.8
78.6 | – | > 100 | 65 | > 100 | COc1ccc2cc3[n+](cc2c1OC)CCc1cc2c(cc1-3)OCO2 [BERBERINE] | > 100 | > 100 | > 100 | > 100
